# Reference: PMC3254236 (Bioorganic & Medicinal Chemistry, 2011)
# Biological target: T1, full length murine FXR (Mus musculus, UniProt Q60641)
# T1 sequence (Q60641 1-488): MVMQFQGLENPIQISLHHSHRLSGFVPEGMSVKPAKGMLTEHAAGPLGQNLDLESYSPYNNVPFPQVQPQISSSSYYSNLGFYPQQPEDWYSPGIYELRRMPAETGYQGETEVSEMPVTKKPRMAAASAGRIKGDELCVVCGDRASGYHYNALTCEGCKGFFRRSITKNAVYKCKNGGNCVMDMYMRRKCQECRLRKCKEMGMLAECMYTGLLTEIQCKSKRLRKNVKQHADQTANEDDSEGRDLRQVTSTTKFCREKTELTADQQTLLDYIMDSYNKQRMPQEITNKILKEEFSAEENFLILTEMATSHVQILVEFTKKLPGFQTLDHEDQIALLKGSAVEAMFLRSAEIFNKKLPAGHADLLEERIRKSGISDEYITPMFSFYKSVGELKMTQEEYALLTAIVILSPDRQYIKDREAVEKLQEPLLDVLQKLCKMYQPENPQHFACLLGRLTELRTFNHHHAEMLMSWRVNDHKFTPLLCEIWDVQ
# T1 sequence (P28700 1-467 partner): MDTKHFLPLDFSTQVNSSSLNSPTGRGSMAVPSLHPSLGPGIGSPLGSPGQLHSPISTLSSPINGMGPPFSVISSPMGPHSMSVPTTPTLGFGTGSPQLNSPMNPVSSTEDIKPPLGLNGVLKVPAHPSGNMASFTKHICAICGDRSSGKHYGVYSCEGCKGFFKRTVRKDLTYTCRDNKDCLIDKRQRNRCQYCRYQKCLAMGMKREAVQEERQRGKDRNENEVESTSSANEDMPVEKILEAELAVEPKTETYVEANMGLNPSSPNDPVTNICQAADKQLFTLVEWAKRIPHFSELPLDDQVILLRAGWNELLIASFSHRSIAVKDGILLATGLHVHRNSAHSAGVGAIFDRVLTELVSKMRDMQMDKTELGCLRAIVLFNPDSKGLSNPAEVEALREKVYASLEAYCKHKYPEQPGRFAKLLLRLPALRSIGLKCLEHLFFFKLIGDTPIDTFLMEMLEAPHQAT
# Experiment: Reporter gene assay for FXR activation
# Format: cell-based
# Details: for Induction of FXR-dependent transcription: Ganoderma constituents 10 μM, normalized to CDCA 25 μM; for FXR induction (percent of CDCA): pure compounds 10 μg/mL, compared with CDCA 25 μM
Induction of FXR-dependent transcription,"EC50 (dose-dependent FXR reporter activation, test concentrations 0.1-50 μM)",Molecule,FXR induction (percent of CDCA)
reached statistical significance,,"C[C@H](CC[C@H](O)C(C)(C)O)[C@H]1CC[C@@]2(C)C3=C(CC[C@]12C)[C@@]1(C)CCC(=O)C(C)(C)[C@@H]1CC3=O [Compound 11, lucidumol A]",
reached statistical significance,,"C[C@H](CC[C@H](O)[C@](C)(O)CO)[C@H]1CC[C@@]2(C)C3=CC[C@H]4C(C)(C)C(=O)CC[C@]4(C)C3=CC[C@]12C [Compound 13, ganodermanontriol]",
reached statistical significance,,"C[C@H](CCC=C(CO)CO)[C@H]1CC[C@@]2(C)C3=CC[C@H]4C(C)(C)C(=O)CC[C@]4(C)C3=CC[C@]12C [Compound 14, ganoderiol F]",
,,COc1ccc(-c2oc3cc(OC)c(OC)c(O)c3c(=O)c2OC)cc1OC [artemisetin],"activated FXR significantly, but at lower extent than CDCA"
,,COc1cc(CNC(=O)CCCCCCC(C)C)ccc1O [dihydrocapsaicin],No activation
,,C=CC(C)(C)c1cc2cc3c(cc2oc1=O)OC(C(C)(C)OC(C)=O)C3 (stereo not drawn) [rutamarin],"activated FXR significantly, but at lower extent than CDCA"
reached statistical significance,> 14 µM,ganoderic acid TR [Compound 12],

Molecule,Induction of FXR-dependent transcription,"EC50 (dose-dependent FXR reporter activation, test concentrations 0.1-50 μM)",FXR induction (percent of CDCA)
"CC(C)[C@@H](C)/C=C/[C@@H](C)[C@H]1CC[C@@H]2[C@]1(C)CC[C@H]1[C@]23C=C[C@]2(C[C@@H](O)CC[C@]12C)OO3 [Compound 2, ergosterol peroxide]",reached statistical significance,,
